According to the supplement of paper PMC10307832:

How the values were obtained:
Assay in all cases: relative viability (nuclei count vs DMSO), 5 days (fraction); higher = more cells survive
Zebularine + Navitoclax = compound: O=c1ncccn1[C@@H]1O[C@H](CO)[C@@H](O)[C@H]1O [Zebularine] + CC1(C)CCC(c2ccc(Cl)cc2)=C(CN2CCN(c3ccc(C(=O)NS(=O)(=O)c4ccc(N[C@H](CCN5CCOCC5)CSc5ccccc5)c(S(=O)(=O)C(F)(F)F)c4)cc3)CC2)C1 [Navitoclax] (partner 0.5 µM)
How it was run: (§1)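 Each reported value is a median over duplicate plates. It expresses relative viability: treated-well nuclei count divided by vehicle-well nuclei count. Lung cancer cell lines in 1536-well plates were dosed by pin tool a day after seeding, alone with one drug or with a fixed anchor-drug dose plus five library-drug doses (not always all listed) in √10 steps, and nuclei were counted after 5 days.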

BI-D1870 + Phenformin = compound: CC(C)CCN1c2nc(Nc3cc(F)c(O)c(F)c3)ncc2N(C)C(=O)C1C [BI-D1870] + N=C(N)NC(=N)NCCc1ccccc1 [Phenformin] (partner 250 µM)
How it was run: as §1

BI-D1870 + Trametinib = compound: CC(C)CCN1c2nc(Nc3cc(F)c(O)c(F)c3)ncc2N(C)C(=O)C1C [BI-D1870] + CC(=O)Nc1cccc(-n2c(=O)n(C3CC3)c(=O)c3c(Nc4ccc(I)cc4F)n(C)c(=O)c(C)c32)c1 [Trametinib] (partner 0.02 µM)
How it was run: as §1

BI-D1870 + Decitabine = compound: CC(C)CCN1c2nc(Nc3cc(F)c(O)c(F)c3)ncc2N(C)C(=O)C1C [BI-D1870] + Nc1ncn([C@H]2C[C@H](O)[C@@H](CO)O2)c(=O)n1 [Decitabine] (partner 2 µM)
How it was run: as §1

Cell Line	relative viability (Zebularine + Navitoclax; first compound 1 µM)	relative viability (Zebularine + Navitoclax; first compound 3.162 µM)	relative viability (Zebularine + Navitoclax; first compound 31.62 µM)	relative viability (Zebularine + Navitoclax; first compound 100 µM)	relative viability (BI-D1870 + Phenformin; first compound 0.04 µM)	relative viability (BI-D1870 + Phenformin; first compound 0.1265 µM)	relative viability (BI-D1870 + Phenformin; first compound 0.4 µM)	relative viability (BI-D1870 + Phenformin; first compound 1.265 µM)	relative viability (BI-D1870 + Phenformin; first compound 4 µM)	relative viability (BI-D1870 + Trametinib; first compound 0.04 µM)	relative viability (BI-D1870 + Trametinib; first compound 0.1265 µM)	relative viability (BI-D1870 + Trametinib; first compound 0.4 µM)	relative viability (BI-D1870 + Trametinib; first compound 1.265 µM)	relative viability (BI-D1870 + Trametinib; first compound 4 µM)	relative viability (BI-D1870 + Decitabine; first compound 0.04 µM)	relative viability (BI-D1870 + Decitabine; first compound 0.1265 µM)	relative viability (BI-D1870 + Decitabine; first compound 0.4 µM)	relative viability (BI-D1870 + Decitabine; first compound 1.265 µM)	relative viability (BI-D1870 + Decitabine; first compound 4 µM)	relative viability (Zebularine + Navitoclax; first compound 10 µM)
NCI-H1437	1.23	1.16	0.99	0.364	0.279	0.255	0.309	0.332	0.27	0.556	0.475	0.494	0.568	0.398	0.59	0.53	0.756	0.629	0.56	–
NCI-H1792	0.61	0.679	0.325	0.18	0.361	0.289	0.259	0.504	0.508	0.489	0.349	0.437	0.567	0.372	0.558	0.525	0.596	0.851	0.666	0.816
ChaGo-K-1	1.18	0.891	0.538	0.292	0.481	0.522	0.477	0.481	0.412	0.899	0.753	0.874	0.909	0.856	0.527	0.468	0.506	0.519	0.511	0.562
COR-L23	1.02	1.15	0.558	0.218	0.461	0.438	0.499	0.407	0.324	0.75	0.536	0.589	0.622	0.572	0.445	0.402	0.508	0.526	0.405	0.323
COR-L 105	0.642	0.738	0.768	0.747	0.562	0.396	0.422	0.489	0.5	0.428	0.409	0.487	0.419	0.458	0.668	0.516	0.668	0.733	0.656	0.674
LK-2	0.759	0.946	0.787	0.417	0.631	0.437	0.451	0.545	0.217	0.864	0.8	0.786	0.97	0.649	0.373	0.317	0.379	0.353	0.342	0.588
